# Experimental data published in PubChem BioAssay (NCI).
# Where “and” joins values, the source holds several entries; their conditions need not be identical. Equal values may be shown once.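 Following 48 hours of exposure in 96-well plates, responses at five concentrations were used to interpolate endpoints linearly. Abbreviation: GI50, concentration required for 50% inhibition of growth. At the TGI there is no net growth.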
# Legend:
# Assay in all cases: DTP human tumour cell line panel, 48 h
# CCRF-CEM leukemia = tested on: CCRF-CEM leukemia
# NCI/ADR-RES ovarian = tested on: NCI/ADR-RES ovarian
# EKVX NSCLC = tested on: EKVX NSCLC
# HOP-62 NSCLC = tested on: HOP-62 NSCLC
# OVCAR-3 ovarian = tested on: OVCAR-3 ovarian
# MCF7 breast = tested on: MCF7 breast
# K-562 leukemia = tested on: K-562 leukemia
# SW-620 colon = tested on: SW-620 colon
# ACHN renal = tested on: ACHN renal
# OVCAR-4 ovarian = tested on: OVCAR-4 ovarian
Compound,GI50 (CCRF-CEM leukemia) [µM],TGI (CCRF-CEM leukemia) [µM],GI50 (NCI/ADR-RES ovarian) [µM],TGI (NCI/ADR-RES ovarian) [µM],GI50 (EKVX NSCLC) [µM],TGI (EKVX NSCLC) [µM],GI50 (HOP-62 NSCLC) [µM],TGI (HOP-62 NSCLC) [µM],GI50 (OVCAR-3 ovarian) [µM],TGI (OVCAR-3 ovarian),GI50 (MCF7 breast) [µM],TGI (MCF7 breast) [µM],GI50 (K-562 leukemia) [µM],TGI (K-562 leukemia) [µM],GI50 (SW-620 colon) [µM],TGI (SW-620 colon) [µM],GI50 (ACHN renal) [µM],TGI (ACHN renal) [µM],GI50 (OVCAR-4 ovarian) [µM],TGI (OVCAR-4 ovarian) [µM]
CCN(CCNc1ccc(C)c2sc3cc(Cl)ccc3c(=O)c12)CC(C)O (centres undefined),2.02,4.27,2.07,4.08,2.28,7.3,1.52,2.86,3.62,14.3 µM,1.5,3.01,1.82,3.41,1.8,3.51,1.85,3.48,4.92,24.9
Cc1ccc(/C=C2/SC(Nc3nc(-c4nc(NC5=NC(=O)/C(=C\c6ccc(C)cc6)S5)sc4C)c(C)s3)=NC2=O)cc1,2.44,> 50,0.435,> 12.7,0.0339,0.15,0.005,2.65,0.329,1.51 µM,1.01,> 50,0.418,> 50,0.714,> 50,0.559,> 29.6,,
CC(=O)Nc1ccccc1C=C1c2ccccc2-c2ccccc21,,> 100,,66.7,,> 100,,42.9,,73 µM,,50.3,,> 100,,> 100,,> 100,,> 100
Cn1c(=O)c(Oc2ccc(F)cc2F)cc2cnc(NC(CO)CO)nc21,> 25,> 25,> 25,> 25,,,> 25,> 25,> 25,> 25 µM,> 25,> 25,> 25,> 25,> 25,> 25,> 25,> 25,> 25,> 25
N=c1c2c(-c3ccccc3)c(-c3ccccc3)n(Cc3ccccc3)c2ncn1CCCO,1.87,12.8,1.33,17.6,4.4,21.3,1.03,7.05,1.38,8.08 µM,0.472,2.07,0.959,7.6,0.377,15.5,0.457,14.3,1.43,13.4
C[C@]12CC[C@@H]3c4ccc(O)cc4CC[C@H]3[C@@H]1CC[C@@H]2NS(=O)(=O)c1cccc(C(F)(F)F)c1,3.46,24.1,3.73,16.9,,,5.18,17.9,2.95,8.6 µM,2.72,8.49,3.63,15.3,3.72,15.6,3.2,11.4,2.95,12.4
CCc1ccccc1N1CCN(C(=O)c2cc(OC)c(OC)c(OC)c2)CC1,,> 100,,1.63,,20.9,,> 46.2,,0.463 µM,,35,,39.4,,> 100,,66.4,,
O=C1/C(=C/c2ccc([N+](=O)[O-])o2)Oc2ccc(Br)cc21,2,4.97,10.9,42,,,15,34.4,1.99,3.56 µM,2.05,5.17,1.92,4.59,1.69,3.23,1.85,3.77,2.37,6.18
CC1=CCC(OC(=O)C(C)(C)CCC(O)(C(=O)OC2(C(C)C)CCC3(C)OC3C2)C(C)C)(C(C)C)CC1 (centres undefined),0.132,50,0.635,2.63,0.654,1.41,0.615,1.63,0.0833,0.166 µM,0.121,0.448,,,0.34,1.13,0.107,0.311,0.608,1.87
O=C1C=C[C@@]23C[C@@H](Nc4c(O)c5c6c(c42)=NCCC=6C=N5)SC3=C1,,> 27,2.88,10.1,7.74,20.2,,,1.5,3.76 µM,2,4.04,2.66,> 21.9,1.68,3.31,3.35,9.16,1.83,3.27
COc1ccc(-c2nnc(SCC(=O)Nc3ccc(/C(C)=N\O)cc3)n2-c2ccccc2)cc1OC,> 100,> 100,> 100,> 100,,,2.06,6.8,7.87,> 100 µM,> 100,> 100,> 100,> 100,> 100,> 100,8.08,> 100,> 100,> 100
COc1ccc(-c2cnnn2-c2cc(OC)c3c(c2)OCO3)cc1,0.148,> 100,0.0403,,,,0.113,> 100,0.0547,0.437 µM,0.0463,> 100,0.0417,> 100,0.0531,> 100,0.891,> 100,5.9,> 100
Cc1nn(-c2ccccc2)c2c1CC(=O)Nc1ccccc1-2,0.112,,,3.73,,,0.384,> 100,0.0805,2.92 µM and 0.552 µM,0.0788,> 100,0.044,0.721,0.152,> 100,0.84,> 100,,> 100
NC(=NC1CCCCCCC1)c1ccc(N2CCN(c3ccc(C(N)=NC4CCCCCCC4)cc3)CC2)cc1,89.8,> 100,> 100,> 100,,,14.4,62.8,1.73,13.8 µM,5.77,> 100,35.4,> 100,8.91,38.5,22.7,> 100,24.6,> 100
